PMC8571052 (ChemMedChem, 2021)

Tests used:
Format in all cases: cell-based, human
HCC-1806 [1] = test: Cell migration, 2D wound-healing scratch assay, HCC-1806; conditions: 24 h
MDA-MB-231 [2] = test: Cell cycle profile; conditions: MDA-MB-231, IC20 concentration, 24 h; non-treated cells 16%
MDA-MB-231 [3] = test: Cell death assay; conditions: MDA-MB-231, IC50 concentration, 24 h, Annexin V/PI
MDA-MB-231 [4] = test: PrestoBlue cell viability assay, MDA-MB-231; conditions: for IC50: MDA-MB-231, 24 h incubation, PrestoBlue
IMR90 = test: PrestoBlue cell viability assay, lung fibroblasts IMR90; conditions: IMR90, 24 h incubation
HCC-1806 [5] = test: Cell invasion, 3D Transwell assay with Geltrex matrix, HCC-1806; conditions: 24 h
HUVEC [6] = test: IC10 concentration in HUVEC cells
MDA-MB-231 [7] = test: Cell invasion, 3D Transwell assay with Geltrex matrix, MDA-MB-231; conditions: MDA-MB-231, IC20 concentration, 24 h
MDA-MB-468 = test: PrestoBlue cell viability assay, MDA-MB-468; conditions: MDA-MB-468, 24 h incubation
MCF10a = test: PrestoBlue cell viability assay, non-malignant breast cells MCF10a; conditions: 24 h incubation
HCC-1806 [8] = test: Cell death assay; conditions: HCC-1806, IC50 concentration, 24 h, Annexin V/PI
HCC-1806 [9] = test: PrestoBlue cell viability assay, HCC-1806; conditions: for IC50: HCC-1806, 24 h incubation, PrestoBlue
HUVEC [10] = test: Endothelial tube formation assay; conditions: IC10 concentration

| Compound | reduction of migration (HCC-1806 [1]; HCC-1806, IC20 concentration) | decrease in antimigratory properties in HCC-1806 with respect to MDA-MB-231 (HCC-1806 [1]; IC20 concentration) | cells in G2/M arrest (MDA-MB-231 [2]) | cells that die by apoptosis (MDA-MB-231 [3]) | IC50 (MDA-MB-231 [4]) | IC20 (MDA-MB-231 [4]; read-out: IC20 values employed, MDA-MB-231 (same value for both cell lines)) | IC50 (IMR90) | invasion reduction (HCC-1806 [5]; HCC-1806, IC20 concentration) | reduction of the antiinvasive properties in HCC-1806 with respect to MDA-MB-231 (HCC-1806 [5]; IC20 concentration) | IC10 concentration (HUVEC [6]) | invasion reduction (MDA-MB-231 [7]) | IC50 (MDA-MB-468) | IC50 (MCF10a) | apoptosis (HCC-1806 [8]) | IC50 (HCC-1806 [9]) | IC20 (HCC-1806 [9]; read-out: IC20 values employed, HCC-1806 (same value for both cell lines)) | disruption in tube length (TL) (HUVEC [10]) | disruption of tube length (first statement) (HUVEC [10]) |
| --- | --- | --- | --- | --- | --- | --- | --- | --- | --- | --- | --- | --- | --- | --- | --- | --- | --- | --- |
| Cc1ccc(C(C)C)cc1.[Cl][Ru]([Cl])[PH]12CN3CN(CN(C3)C1)C2 [RAPTA-C, [Ru(η^6-p-cymene)Cl2(1,3,5-triaza-7-phosphaadamantane])] | 42.7% | ca. 17.6% | 23% | 30.8% | > 300 µM | 250 µM | > 300 µM | 41.2% | 25.7% | 150 µM | 66.9% | > 300 µM | > 300 µM | 27.25% | > 300 µM | 250 µM | 22% | 27% |
| N.N.[Cl][Pt][Cl] [cisplatin] |  |  |  |  | 132 ± 18 µM |  | 149 ± 13.1 µM |  |  |  |  | 44.2 ± 2.1 µM | 32.9 ± 6.68 µM |  | 163 ± 5.86 µM |  |  |  |
